The target of experiment [1] is T1, human TREX2 (residues M44-A279) (Homo sapiens, UniProt Q9BQ50).
T1 construct: human TREX2 (residues M44-A279, expressed in E. coli); His-Tev (His tag with TEV protease site) (N); made in house; host or cells: E. coli
T1 sequence (Q9BQ50 44-279 isoform Q9BQ50-1): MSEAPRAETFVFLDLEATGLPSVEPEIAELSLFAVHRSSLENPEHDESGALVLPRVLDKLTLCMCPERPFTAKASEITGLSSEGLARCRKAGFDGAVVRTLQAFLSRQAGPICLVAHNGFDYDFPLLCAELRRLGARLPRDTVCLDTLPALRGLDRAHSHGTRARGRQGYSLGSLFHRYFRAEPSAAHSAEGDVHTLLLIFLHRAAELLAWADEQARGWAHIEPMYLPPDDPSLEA
In words: TREX2 Biochemical Assay (fluorescence assay, degradation of dsDNA substrate). To be noted: 2.5 nM TREX2, 60 nM dsDNA substrate, 25 minutes at room temperature; read-out: hTREX2 EC50. On the procedure:
Degradation of the dsDNA liberates free fluorophore to produce a fluorescent signal. Specifically, 7.5 μL of N-terminally His-Tev tagged human TREX2 (residues M44-A279, expressed in E. coli and purified in house) in reaction buffer (50 mM Tris (pH 7.4), 150 mM NaCl, 2 mM DTT, 0.1 mg/mL BSA, 0.01% (v/v) Tween-20 and 100 mM MgCl2) was added to a 384-well Black ProxiPlate Plus (Perkin Elmer) which already contained compound (150 nL) at varying concentrations as a 10-point dose-response in DMSO. To this was added 7.5 μL of dsDNA substrate (Strand A: 5′ TEX615/GCT AGG CAG 3′; Strand B: 5′ CTG CCT AGC/IAbRQSp (IDT)) in reaction buffer. Final concentrations were 2.5 nM TREX2, 60 nM dsDNA substrate in reaction buffer with 1.0% DMSO (v/v). After 25 minutes at room temperature, reactions were quenched by the addition of 5 μL of stop buffer (same as reaction buffer plus 200 mM EDTA). Final concentrations in the quenched reaction mixture were […] TREX2, 45 nM DNA and 50 mM EDTA in a volume of 20 μL. After a 5-minute incubation at room temperature, plates were read in a laser sourced Envision (Perkin-Elmer), measuring fluorescence at 615 nm following excitation w/570 nm light. IC50 values were calculated by comparing the measured fluorescence at 615 nm ratio relative to control wells pre-quenched w/stop buffer (100% inhibition) and no inhibitor (0% inhibition) controls as using non-linear least square four parameter fits and either Genedata or GraphPad Prism (GraphPad Software, Inc.).

Another experiment deals with T2, full length human TREX1 (Homo sapiens, UniProt Q9NSU2).
T2 construct: N-terminally His-Tev tagged full length human TREX1; His-Tev (His tag with TEV protease site) (N); made in house; host or cells: E. coli
T2 sequence (Q9NSU2 1-314): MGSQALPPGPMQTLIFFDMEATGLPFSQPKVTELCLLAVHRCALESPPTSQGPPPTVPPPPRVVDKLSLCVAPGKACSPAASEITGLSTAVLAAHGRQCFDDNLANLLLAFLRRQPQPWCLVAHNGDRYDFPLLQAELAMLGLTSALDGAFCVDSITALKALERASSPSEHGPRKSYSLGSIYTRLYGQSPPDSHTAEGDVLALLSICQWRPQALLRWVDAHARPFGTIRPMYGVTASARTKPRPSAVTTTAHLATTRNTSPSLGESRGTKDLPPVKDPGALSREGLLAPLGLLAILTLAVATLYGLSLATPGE
Put plainly: TREX1 Biochemical Assay (fluorescence assay, degradation of dsDNA substrate). To be noted: 150 pM TREX1, 60 nM dsDNA substrate, 25 minutes at room temperature; read-out: hTREX1 EC50. The procedure: Degradation of the dsDNA liberates free fluorophore to produce a fluorescent signal. Specifically, 7.5 μL of N-terminally His-Tev tagged full length human TREX1 (expressed in E. coli and purified in house) in reaction buffer (50 mM Tris (pH 7.4), 150 mM NaCl, 2 mM DTT, 0.1 mg/mL BSA, 0.01% (v/v) Tween-20 and 100 mM MgCl2) was added to a 384-well Black ProxiPlate Plus (Perkin Elmer) which already contained compound (150 nL) at varying concentrations as a 10-point dose-response in DMSO. To this was added 7.5 μL of dsDNA substrate (Strand A: 5′ TEX615/GCT AGG CAG 3′; Strand B: 5′ CTG CCT AGC/IAbRQSp (Integrated DNA Technologies)) in reaction buffer. Final concentrations were 150 pM TREX1, 60 nM dsDNA substrate in reaction buffer with 1.0% DMSO (v/v). After 25 minutes at room temperature, reactions were quenched by the addition of 5 μL of stop buffer (same as reaction buffer plus 200 mM EDTA). Final concentrations in the quenched reaction were 112.5 pM TREX1, 45 nM DNA and 50 mM EDTA in a volume of 20 μL. After a 5-minute incubation at room temperature, plates were read in a laser sourced Envision (Perkin-Elmer), measuring fluorescence at 615 nm following excitation w/570 nm light. IC50 values were calculated by comparing the measured fluorescence at 615 nm ratio relative to control wells pre-quenched w/stop buffer (100% inhibition) and no inhibitor (0% inhibition) controls as using non-linear least square four parameter fits and either Genedata or GraphPad Prism (GraphPad Software, Inc.).

What is called EC50 is the concentration giving half of the maximal effect. On to `NCC[C@@H](c1cccc(Cl)c1Cl)N(Cc1cccnc1)C(=O)c1cc(F)cc(F)c1` [Compound 237], for which the EC50 in experiment [1] is 10 to 100 µM; at full length human TREX1 it was greater than 10 µM.
For the molecule `COc1cccc(CN(Cc2cccnc2)C(=O)c2cccc(F)c2)c1Cl` [Compound 127], the EC50 in experiment [1] was greater than 100 µM; at full length human TREX1 it was 1 to 10 µM.
For `O=C(c1cccc(F)c1)N(Cc1ccccc1)Cc1ccc(Cl)cc1Cl` [Compound 96], the EC50 in experiment [1] was greater than 100 µM; on full length human TREX1 it was greater than 10 µM.
`COC(=O)C[C@H](c1ccc(Cl)cc1Cl)N(Cc1cccnc1)C(=O)c1cc(F)cc(F)c1` [Compound 216]: the results for the EC50 (in experiment [1]; at full length human TREX1) were 10 to 100 µM and 1 to 10 µM, respectively.
On the same counts, the results for `O=C(c1cccc(F)c1)N(Cc1cccnc1)Cc1ccccc1F` [Compound 129] are greater than 100 µM and greater than 10 µM.
Turning to `O=C(c1ccc(Oc2ccccc2)cc1)N(Cc1cccnc1)Cc1ccc(Cl)cc1Cl` [Compound 33], the EC50 in experiment [1] was greater than 100 µM; on full length human TREX1, greater than 10 µM.
The matching figures for `N#CC[C@H](c1cccc(Cl)c1Cl)N(Cc1cccnc1)C(=O)c1cc(F)cc(F)c1` [Compound 235]: 1 to 10 µM and less than 0.1 µM.
With `O=C(O)c1ccc(CN(Cc2cccc(Cl)c2Cl)C(=O)c2cc(F)cc(F)c2)c(O)n1` [Compound 247], the EC50 lay within 10 to 100 µM in experiment [1] and 0.1 to 1 µM at full length human TREX1.
In the case of `O=C(O)c1ncc(CN(Cc2ccccc2Cl)C(=O)c2cc(F)cc(F)c2)cn1` [Compound 207], the EC50 lay in the range of 10 to 100 µM in experiment [1] and 0.1 to 1 µM on full length human TREX1.
`O=C(O)c1ccc(CN(Cc2ccc(Cl)cc2Cl)C(=O)c2cc(F)cc(F)c2)cc1` [Compound 168]: the values for the EC50 (in experiment [1]; on full length human TREX1) were 10 to 100 µM and 1 to 10 µM, respectively.
For the molecule `O=C(c1cccc(F)c1)N(Cc1ccc(C(F)(F)F)nc1)Cc1ccc(Cl)cc1Cl` [Compound 105], the EC50 in experiment [1] is greater than 100 µM; at full length human TREX1, greater than 10 µM.
On the same counts, the results for `N#CC[C@@H](c1cccc(Cl)c1Cl)N(Cc1cccnc1)C(=O)c1cc(F)cc(F)c1` [Compound 234] are 10 to 100 µM and 1 to 10 µM.
Consider `COc1cc(C(=O)N(Cc2cccnc2)Cc2cc(Cl)cc(Cl)c2)cc(Cl)c1O` [Compound 67], for which the EC50 in experiment [1] is greater than 100 µM; at full length human TREX1 it was greater than 10 µM.
For the molecule `O=C(/C=C/c1ccco1)N(Cc1cccnc1)Cc1ccc(Cl)cc1Cl` [Compound 79], the values for the EC50 (in experiment [1]; at full length human TREX1) were greater than 100 µM and greater than 10 µM, respectively.
Take `Cc1nonc1C(=O)N(Cc1cccnc1)Cc1ccc(Cl)cc1Cl` [Compound 116]: the EC50 in experiment [1] was greater than 100 µM; on full length human TREX1, greater than 10 µM.
The matching figures for `O=C(c1ccc(Br)cc1)N(Cc1cccnc1)Cc1cc(Cl)cc(Cl)c1` [Compound 26]: greater than 100 µM and greater than 10 µM.
As for `NCC[C@H](c1cccc(Cl)c1Cl)N(Cc1cccnc1)C(=O)c1cc(F)cc(F)c1` [Compound 238], the values for the EC50 (in experiment [1]; on full length human TREX1) were 10 to 100 µM and greater than 10 µM, respectively.
Consider `O=C(c1ccc(F)cn1)N(Cc1cccnc1)Cc1ccc(Cl)cc1Cl` [Compound 99], for which the EC50 is greater than 100 µM in experiment [1] and greater than 10 µM at full length human TREX1.
`Cc1ccccc1CN(Cc1ccc(C(=O)O)nc1)C(=O)c1cc(F)cc(F)c1` [Compound 193]: the EC50 in experiment [1] was 10 to 100 µM; on full length human TREX1 it was 0.1 to 1 µM.
Consider `COc1cc(C(=O)N(Cc2cccnc2)Cc2ccc(Cl)cc2Cl)cc(Br)c1O` [Compound 41], for which the EC50 in experiment [1] was greater than 100 µM; at full length human TREX1, greater than 10 µM.
For `O=C(O)c1ccc(CN(Cc2cccc(Cl)c2C(F)(F)F)C(=O)c2cc(F)cc(F)c2)cn1` [Compound 198], the half-maximal effective concentration (EC50) in experiment [1] fell in the range of 10 to 100 µM; on full length human TREX1, 0.1 to 1 µM.
The matching figures for `O=C(c1ccc(O)cc1)N(Cc1cccnc1)Cc1cc(Cl)cc(Cl)c1` [Compound 48]: greater than 100 µM and greater than 10 µM.
In the case of `O=C(c1ccc(F)c(Cl)c1)N(Cc1cccnc1)Cc1cc(Cl)cc(Cl)c1` [Compound 65], the figures for the EC50 (in experiment [1]; at full length human TREX1) were greater than 100 µM and 1 to 10 µM, respectively.
The matching figures for `O=C(c1cccc(F)c1)N(CCc1ccccc1)Cc1cccnc1` [Compound 131]: greater than 100 µM and greater than 10 µM.
On to `O=C(c1cccc(F)c1)N(Cc1ccc(CO)nc1)Cc1ccc(Cl)cc1Cl` [Compound 145, N-(2,4-dichlorobenzyl)-3-fluoro-N-((6-(hydroxymethyl)pyridin-3-yl)methyl)benzamide], for which the EC50 was 10 to 100 µM in experiment [1] and 1 to 10 µM at full length human TREX1.
As to `CN(C)c1cc(CN(Cc2cccc(Cl)c2Cl)C(=O)c2cc(F)cc(F)c2)cnc1C(=O)O` [Compound 243], the EC50 in experiment [1] was in the range of 10 to 100 µM; at full length human TREX1, 1 to 10 µM.
On the same counts, the results for `NCCC[C@H](c1cccc(Cl)c1Cl)N(Cc1cccnc1)C(=O)c1cc(F)cc(F)c1` [Compound 249] are 10 to 100 µM and 1 to 10 µM.
Regarding `Cc1ncc(C(=O)N(Cc2cccnc2)Cc2ccc(Cl)cc2Cl)cn1` [Compound 104], the results for the EC50 (in experiment [1]; at full length human TREX1) were greater than 100 µM and greater than 10 µM, respectively.
On to `O=C(c1cccc(F)c1)N(Cc1cnccn1)Cc1ccc(Cl)cc1Cl` [Compound 111], for which the EC50 in experiment [1] is greater than 100 µM; at full length human TREX1 it was 1 to 10 µM.
In the case of `O=C(c1ccccc1N1CCCCC1)N(Cc1cccnc1)Cc1ccc(Cl)cc1Cl` [Compound 42], the EC50 in experiment [1] is greater than 100 µM; at full length human TREX1, greater than 10 µM.
As for `O=C(c1ccc(O)c(F)c1)N(Cc1cccnc1)Cc1cc(Cl)cc(Cl)c1` [Compound 57], the EC50 is greater than 100 µM in experiment [1] and greater than 10 µM on full length human TREX1.
On the same counts, the results for `O=C(c1cc(F)cc(F)c1)N(Cc1cccnc1)[C@H](c1cn[nH]c1)c1ccc(Cl)cc1Cl` [Compound 220] are 10 to 100 µM and 0.1 to 1 µM.
The matching figures for `NC(=O)c1ccc(CN(Cc2cccc(Cl)c2Cl)C(=O)c2cc(F)cc(F)c2)cn1` [Compound 150]: greater than 100 µM and 1 to 10 µM.
For `O=C(c1cc(Cl)c(O)c(Cl)c1)N(Cc1cccnc1)Cc1cc(Cl)cc(Cl)c1` [Compound 49], the values for the EC50 (in experiment [1]; on full length human TREX1) were greater than 100 µM and greater than 10 µM, respectively.
For `O=C(c1cc(Cl)c(O)c(Cl)c1)N(Cc1cccnc1)Cc1ccc(Cl)cc1Cl` [Compound 27], the EC50 is greater than 100 µM in experiment [1] and greater than 10 µM on full length human TREX1.
On to `CC[C@H](c1cccc(OC)c1C(F)(F)F)N(Cc1ccc(C(=O)O)nc1)C(=O)c1cc(F)cc(F)c1` [Compound 196], for which the EC50 is less than 1 µM in experiment [1] and less than 0.1 µM at full length human TREX1.
For the molecule `O=C(O)c1ccc(CN(Cc2cccc(Cl)c2Cl)C(=O)c2cc(F)cc(F)c2)cn1` [Compound 148], the EC50 in experiment [1] is less than 1 µM; at full length human TREX1 it was less than 0.1 µM.

(Values after patent US20230233541A1, “SUBSTITUTED BENZAMIDES AS MODULATORS OF TREX1” (Constellation Pharmaceuticals, Inc., priority 2020, published 2023).)
